In PubChem BioAssay (NCI):
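Five compound concentrations were applied to cells in 96-well plates for 48 hours; endpoints were derived by simple linear interpolation of the resulting dose-response curve. At the TGI there is no net growth.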

Legend:
Experiment in all cases: NCI tumour cell line growth inhibition, 48 h
KM12 colon = system: KM12 colon
OVCAR-8 ovarian = system: OVCAR-8 ovarian
DLD-1 colon = system: DLD-1 colon
EKVX NSCLC = system: EKVX NSCLC
HCT-116 colon = system: HCT-116 colon
NCI-H226 lung = system: NCI-H226 lung
TK-10 renal = system: TK-10 renal
SF-268 CNS = system: SF-268 CNS
NCI-H23 lung = system: NCI-H23 lung
SNB-19 CNS = system: SNB-19 CNS
MALME-3M melanoma = system: MALME-3M melanoma
SF-295 CNS = system: SF-295 CNS
KM20L2 colon = system: KM20L2 colon
IGROV1 ovarian = system: IGROV1 ovarian
A549 NSCLC = system: A549 NSCLC
HCC-2998 colon = system: HCC-2998 colon
SN12C renal = system: SN12C renal
LOX IMVI melanoma = system: LOX IMVI melanoma
ACHN renal = system: ACHN renal
SW-620 colon = system: SW-620 colon
DMS 114 small cell lung = system: DMS 114 small cell lung
MOLT-4 leukemia = system: MOLT-4 leukemia
SK-MEL-28 melanoma = system: SK-MEL-28 melanoma
U251 CNS = system: U251 CNS
RXF-631 renal = system: RXF-631 renal
DMS 273 small cell lung = system: DMS 273 small cell lung
HOP-92 NSCLC = system: HOP-92 NSCLC
K-562 leukemia = system: K-562 leukemia
HOP-62 NSCLC = system: HOP-62 NSCLC
NCI-H460 lung = system: NCI-H460 lung
HL-60(TB) leukemia = system: HL-60(TB) leukemia
SR leukemia = system: SR leukemia
SK-OV-3 ovarian = system: SK-OV-3 ovarian
786-0 renal = system: 786-0 renal
CAKI-1 renal = system: CAKI-1 renal
HCT-15 colon = system: HCT-15 colon
COLO 205 colon = system: COLO 205 colon
SF-539 CNS = system: SF-539 CNS
NCI-H522 lung = system: NCI-H522 lung
RPMI-8226 leukemia = system: RPMI-8226 leukemia
CCRF-CEM leukemia = system: CCRF-CEM leukemia
OVCAR-3 ovarian = system: OVCAR-3 ovarian
UACC-62 melanoma = system: UACC-62 melanoma
SK-MEL-2 melanoma = system: SK-MEL-2 melanoma
LXFL 529 NSCLC = system: LXFL 529 NSCLC
SK-MEL-5 melanoma = system: SK-MEL-5 melanoma
HT29 colon = system: HT29 colon
RXF 393 renal = system: RXF 393 renal
UACC-257 melanoma = system: UACC-257 melanoma
M14 melanoma = system: M14 melanoma
XF 498 CNS = system: XF 498 CNS
UO-31 renal = system: UO-31 renal
HOP-18 NSCLC = system: HOP-18 NSCLC
OVCAR-4 ovarian = system: OVCAR-4 ovarian
M19-MEL melanoma = system: M19-MEL melanoma
OVCAR-5 ovarian = system: OVCAR-5 ovarian
SNB-75 CNS = system: SNB-75 CNS
SNB-78 CNS = system: SNB-78 CNS
A498 renal = system: A498 renal

Cn1c2c(c3ccccc31)C1C(=O)N(c3ccccc3)C(=O)C1CC2 (configuration not stated)
TGI (KM12 colon): > 303 µM | TGI (OVCAR-8 ovarian): > 303 µM | TGI (DLD-1 colon): > 303 µM | TGI (EKVX NSCLC): > 303 µM | TGI (HCT-116 colon): > 303 µM | TGI (NCI-H226 lung): > 303 µM | TGI (TK-10 renal): > 303 µM | TGI (SF-268 CNS): > 303 µM | TGI (NCI-H23 lung): > 303 µM | TGI (SNB-19 CNS): > 303 µM | TGI (MALME-3M melanoma): > 303 µM | TGI (SF-295 CNS): > 303 µM | TGI (KM20L2 colon): > 303 µM | TGI (IGROV1 ovarian): > 303 µM | TGI (A549 NSCLC): > 303 µM | TGI (HCC-2998 colon): > 303 µM | TGI (SN12C renal): > 303 µM | TGI (LOX IMVI melanoma): > 303 µM | TGI (ACHN renal): > 303 µM | TGI (SW-620 colon): > 303 µM | TGI (DMS 114 small cell lung): > 303 µM | TGI (MOLT-4 leukemia): > 303 µM | TGI (SK-MEL-28 melanoma): > 303 µM | TGI (U251 CNS): > 303 µM | TGI (RXF-631 renal): > 303 µM | TGI (DMS 273 small cell lung): > 303 µM | TGI (HOP-92 NSCLC): > 303 µM | TGI (K-562 leukemia): > 303 µM | TGI (HOP-62 NSCLC): > 303 µM | TGI (NCI-H460 lung): > 303 µM | TGI (HL-60(TB) leukemia): > 303 µM | TGI (SR leukemia): > 303 µM | TGI (SK-OV-3 ovarian): > 303 µM | TGI (786-0 renal): > 303 µM | TGI (CAKI-1 renal): > 303 µM | TGI (HCT-15 colon): > 303 µM | TGI (COLO 205 colon): > 303 µM | TGI (SF-539 CNS): > 303 µM | TGI (NCI-H522 lung): > 303 µM | TGI (RPMI-8226 leukemia): > 303 µM | TGI (CCRF-CEM leukemia): > 303 µM | TGI (OVCAR-3 ovarian): > 303 µM | TGI (UACC-62 melanoma): > 303 µM | TGI (SK-MEL-2 melanoma): > 303 µM | TGI (LXFL 529 NSCLC): > 303 µM | TGI (SK-MEL-5 melanoma): > 303 µM | TGI (HT29 colon): > 303 µM | TGI (RXF 393 renal): > 303 µM | TGI (UACC-257 melanoma): > 303 µM

C=C(Nc1ccc(OC)cc1OC)C(=O)Cc1cccc[n+]1[O-]
TGI (KM12 colon): > 100 µM | TGI (OVCAR-8 ovarian): > 100 µM | TGI (M14 melanoma): > 100 µM | TGI (DLD-1 colon): > 100 µM | TGI (EKVX NSCLC): > 100 µM | TGI (HCT-116 colon): > 100 µM | TGI (NCI-H226 lung): > 100 µM | TGI (TK-10 renal): > 100 µM | TGI (SF-268 CNS): > 100 µM | TGI (NCI-H23 lung): > 100 µM | TGI (SNB-19 CNS): > 100 µM | TGI (MALME-3M melanoma): > 100 µM | TGI (SF-295 CNS): > 100 µM | TGI (KM20L2 colon): > 100 µM | TGI (IGROV1 ovarian): > 100 µM | TGI (A549 NSCLC): > 100 µM | TGI (HCC-2998 colon): > 100 µM | TGI (SN12C renal): > 100 µM | TGI (LOX IMVI melanoma): > 100 µM | TGI (ACHN renal): > 100 µM | TGI (XF 498 CNS): > 100 µM | TGI (UO-31 renal): > 100 µM | TGI (SW-620 colon): > 100 µM | TGI (DMS 114 small cell lung): > 100 µM | TGI (MOLT-4 leukemia): > 100 µM | TGI (SK-MEL-28 melanoma): > 100 µM | TGI (U251 CNS): > 100 µM | TGI (DMS 273 small cell lung): > 100 µM | TGI (HOP-92 NSCLC): > 100 µM | TGI (K-562 leukemia): > 100 µM | TGI (HOP-18 NSCLC): > 100 µM | TGI (HOP-62 NSCLC): > 100 µM | TGI (NCI-H460 lung): > 100 µM | TGI (HL-60(TB) leukemia): > 100 µM | TGI (SR leukemia): > 100 µM | TGI (SK-OV-3 ovarian): > 100 µM | TGI (786-0 renal): > 100 µM | TGI (OVCAR-4 ovarian): > 100 µM | TGI (CAKI-1 renal): > 100 µM | TGI (HCT-15 colon): > 100 µM | TGI (COLO 205 colon): > 100 µM | TGI (M19-MEL melanoma): > 100 µM | TGI (SF-539 CNS): > 100 µM | TGI (OVCAR-5 ovarian): > 100 µM | TGI (NCI-H522 lung): > 100 µM | TGI (RPMI-8226 leukemia): > 100 µM | TGI (CCRF-CEM leukemia): > 100 µM | TGI (OVCAR-3 ovarian): > 100 µM | TGI (UACC-62 melanoma): > 100 µM | TGI (SK-MEL-2 melanoma): > 100 µM | TGI (LXFL 529 NSCLC): > 100 µM | TGI (SNB-75 CNS): > 100 µM | TGI (SNB-78 CNS): > 100 µM | TGI (SK-MEL-5 melanoma): > 100 µM | TGI (HT29 colon): > 100 µM | TGI (A498 renal): > 100 µM | TGI (RXF 393 renal): > 100 µM | TGI (UACC-257 melanoma): > 100 µM
